In US20230172907A1, “SARS-COV-2 INHIBITORS” (priority 2021, published 2023):

System: SARS-CoV-2
Assay: In vitro SARS-CoV-2 plaque inhibition assay in Vero E6 cells
Assay type: cell-based

Structure (SMILES) | antiviral effects (plaque inhibition) (10 µM, 48 h) | reduction of the production of SARS-CoV-2 plaques (10 µM, 48 h) | IC50 (Severe acute respiratory syndrome coronavirus 2, Vero C1008, estimated, read-out: IC50 plaque formation)
COC(=O)N[C@H](C(=O)N[C@@H](Cc1ccccc1)[C@@H](O)CN(Cc1ccc(-c2ccccn2)cc1)NC(=O)[C@@H](NC(=O)OC)C(C)(C)C)C(C)(C)C [Atazanavir] | no antiviral effects | – | –
CC[C@H](NC(=O)[C@H](C)NC)C(=O)N1C[C@@H](O)C[C@H]1Cc1c(-c2[nH]c3cc(F)ccc3c2C[C@@H]2C[C@H](O)CN2C(=O)[C@H](CC)NC(=O)[C@H](C)NC)[nH]c2cc(F)ccc12 [Birinapant] | – | 37% | 18 ± 3.6 µM
